# Measured values from patent US20140351963A1, “MiRNAs Useful to Reduce Lung Cancer Tumorigenesis and Chemotherapy Resistance and Related Compositions and Methods” (Ohio State Innovation Foundation, priority 2011, published 2014).
# Assays:
# [1] = system: miR-103 and miR-203; test: qRT-PCR of miRNA expression after drug treatment; assay type: cell-based, human; details: Calu-1; 1 and 3 μM, 24, 48 and 72 h; P<0.05
# Procedure: (§1) Real-time PCR was performed using a standard TaqMan PCR Kit protocol on an Applied Biosystems 7900HT Sequence Detection System (Applied Biosystems). The 10 pl PCR reaction included 0.67 pl RT product, 1 pl TaqMan Universal PCR Master Mix (Applied Biosystems), […]. The reactions were incubated in a 96-well plate at 95° C. for […], followed by 40 cycles of 95° C. for 15 s and 60° C. for 1 mM All reactions were run in triplicate. The threshold cycle (CT) is defined as the fractional cycle number at which the fluorescence passes the fixed threshold. The comparative CT method for relative quantization of gene expression (Applied Biosystems) was used to determine miRNA and genes expression levels. The y axis represents the 2^(−ΔCT), or the relative expression of the different miRs and genes. MiRs expression was calculated relative to U44 and U48 rRNA (for microRNAs) and to GAPDH (for genes). Experiments were carried out in triplicate for each data point, and data analysis was performed by using software (Bio-Rad).
# [2] = system: miR-30b, miR-30c, miR-221 and miR-222; test: qRT-PCR of miRNA expression after drug treatment; assay type: cell-based, human; details: for miR-30b, miR-30c, miR-221 and miR-222 expression after gefitinib: 5 μM or 10 μM gefitinib; for miR-221, miR-222, miR-30b and miR-30c expression after gefitinib: 10 μM gefitinib, 24 h
# Procedure: as §1
# [3] = system: Calu-1 cells; test: Cell viability (MTS) and caspase 3/7 assays with gefitinib; assay type: cell-based, human; details: for Gefitinib sensitivity of transfected cells (caspase-3/7 and viability assays): Calu-1
# Procedure: (§2) For detection of caspase 3/7 activity, cells were cultured in 96-well plates, in triplicate, treated with 5 μM, 10 μM or 15 μM gefitinig and analyzed using a Caspase-Glo 3/7 Assay kit (Promega) according to the manufacturer's instructions. Continuous variables are expressed as means±s.d. Cell viability was examined with 3-(4,5dimethylthiazol-2-yl)-2,5-dipheniltetrazolium bromide (MTS)-Cell Titer 96 AQueous One Solution Cell Proliferation Assay (Promega) according to the manufacturer's protocol. Metabolically active cells were detected by adding 20 μl of MTS to each well. After 1 h of incubation, the plates were analyzed in a Multilabel Counter (Bio-Rad Laboratories).
# [4] = system: BIM and APAF-1; test: Western blot of BIM and APAF-1 protein; assay type: cell-based, human; details: 24 h; for BIM and APAF-1 protein after gefitinib: 5 μM or 10 μM gefitinib; for APAF-1 and BIM expression after gefitinib: 5 or 10 μM gefitinib
# Procedure: (§3) Total proteins from NSCLC were extracted with radioimmunoprecipitation assay (PIRA) buffer ([…], pH 7.5, 1% Triton, 0.1% SDS, 0.1% sodium deoxycholate and 1% Nonidet P40). Sample extract (50 μg) was resolved on 7.5-12% SDS-polyacriylamide gels (PAGS) using a mini-gel apparatus (Bio-Rad Laboratories) and transferred to Hybond-C extra nitrocellulose. Membranes were blocked for 1 h with 5% nonfat dry milk in Tris-buffered saline containing 0.05% Tween 20, incubated overnight with primary antibody, washed and incubated with secondary antibody, and visualized by chemiluminescence.
# (§4) The following primary antibodies were used: Apaf-1, Snail, Slug (abcam), Src, Met, Dicer, Vimintin, E-cadherin, Zeb1, Zeb-2 (Santa Cruz), Bim, pErks, total Erks, pAkt, total Akt, GAPDH, Parp (cell signaling, Pkc-ε, (BD transduction lab), β-actin antibody, Fibronectin (Sigma). A secondary anti-rabbit or anti-mouse immunoglobulin G (IgG) antibody peroxidase conjugate (Chemicon) was used.
# [5] = system: miR-21, miR-29a, miR-29c and miR-100; test: qRT-PCR of miRNA expression after drug treatment; assay type: cell-based, human; details: 5 and 10 μM gefitinib
# Procedure: as §1
# [6] = system: phosphorylated ERKs; test: Western blot of ERK phosphorylation after gefitinib; assay type: cell-based; details: 24 h; for Concentration of phosphorylated ERKs compared to untreated cells: 5 μM or 10 μM gefitinib; for ERKs phosphorylation after gefitinib: 5 or 10 μM gefitinib
# Procedure: as §3, §4
# [7] = system: PC9 cells; test: Cell viability (MTS) and caspase 3/7 assays with gefitinib; assay type: cell-based; details: PC9 EGFR mutant; even at low doses (0.1 μM), 24 h
# Procedure: as §2
# [8] = system: AKT/ERKs pathways; test: Western blot of AKT/ERKs pathways after miRNA enforced expression; assay type: cell-based; details: A549; miRNA overexpression
# Procedure: as §3, §4
# [9] = system: mesenchymal markers and E-cadherin; test: Expression of epithelial and mesenchymal markers (immunofluorescence, immunoblot, qRT-PCR); assay type: cell-based, human; details: Calu-1
# Procedure: Cells were grown on Lab-Tek II CC2 chamber slides (Nunc), fixed with 4% paraformaldehyde and permeabilized with 0.2% Triton X-100/PBS before blocking with 10% sheep serum (Caltag Laboratories). All the primary antibodies were from Abcam. Secondary antibodies were goat antibodies to mouse or rabbit coupled to Alexa 488 (Invitrogen). F-actin was stained by using a phalloidin reagent (Invitrogen). Cell nuclei were visualized with DAPI (Sigma). Slides were mounted with SlowFade Gold Antifade reagent (Invitrogen).
# as §3, §1
# [10] = system: A549 cells; test: A549 xenograft in nude mice with gefitinib treatment; assay type: in vivo; details: for Tumor growth: nude mice injected s.c. with stably infected A549 cells, 35 days; for Sensitivity to gefitinib-induced apoptosis in vivo: nude mice, stably infected A549 cells, gefitinib 200 mg/kg oral gavage, 2 weeks
# Procedure: A549 cells were stably infected with a control miRNA, miR-103 and miR-203 or with control inhibitor of miRNA or a lentiviral inhibitor of miR-221 and miR-30c (SBI). We injected 5×10^6 viable cells subcutaneously into the right flanks of 6-week-old male nude mice (Charles River Breeding Laboratories). Treatment was started 7 d after tumor cell inoculation. […] Tumor size was assessed twice per week using a digital caliper. Tumor volumes were determined by measuring the length (1) and the width (w) of the tumor and calculating the volume (V=lw^2/2). We killed the mice 35 days after injection. Statistical significance between the control and treated mice was evaluated using a Student's t test. Mouse experiments were conducted after approval by the institutional animal care and use committee at Ohio State University.
# A549 cells were stably infected with the Human pre-microRNA Expression Construct Lenti-miR expression plasmid containing the full-length miR-103, miR-203 or the anti-miR-221, miR-30c and the GFP gene under the control of two different promoters (System Biosciences). An empty vector was used as control. Pre-miRs expression and control constructs were packaged with pPACKH1 Lentivector Packaging Plasmid mix (System Biosciences) in a 293TN packaging cell line. Viruses were concentrated using PEGit Virus Precipitation Solution, and titers were analyzed using the UltraRapid Lentiviral Titer Kit (System Biosciences). Infected cells were selected by FACS analysis (FACScalibur; BD Bioscience). Infection efficiency >90% was verified by fluorescent microscopy and confirmed by real-time PCR for miRs expression.
# [11] = system: A549 cells; test: Cell-cycle analysis by flow cytometry; assay type: cell-based
# Procedure: (§5) For cell-cycle analysis, cells were plated in 6 cm dishes, transfected as indicated in the figures, trypsinized, washed in PBS, and fixed with ice-cold 70% ethanol while vortexing. Cells were rehydrated in PBS and stained 30 min at RT with propidium iodide ([…] PI, 0.5 mg/ml RNase in PBS) prior to flow-cytometric analysis. Every experiment was repeated 5 times independently, with two replicas for each sample.
# [12] = system: PKC-ε and SRC; test: Western blot of PKC-ε and SRC protein; assay type: cell-based, human
# Procedure: as §3, §4
# [13] = system: Calu-1 cells; test: Cell-cycle analysis by flow cytometry; assay type: cell-based, human
# Procedure: as §5
# [14] = system: Dicer; test: Western blot of Dicer; assay type: cell-based; details: Calu-1
# Procedure: as §3, §4
# [15] = system: NSCLCs; test: Transwell migration assay; assay type: cell-based; details: 24 h
# Procedure: Transwell insert chambers with an 8-μm porous membrane (Greiner Bio One) were used for the assay. Cells were washed three times with PBS and added to the top chamber in serum-free medium. The bottom chamber was filled with medium containing 10% FBS. Cells were incubated for 24 h at 37° C. in a 5% CO2 humidified incubator. To quantify migrating cells, cells in the top chamber were removed by using a cotton-tipped swab, and the migrated cells were fixed in PBS, 25% glutaraldehyde and stained with crystal violet stain, visualized under a phase-contrast microscope and photographed. Crystalviolet-stained cells were then solubilized in acetic acid and methanol (1:1), and absorbance was measured at 595 nm.
# [16] = SU11274 treated Calu-1 cells exposed to different concentrations of gefitinib, 24 h
molecule,measurement,setting,value
Cc1[nH]c(/C=C2\C(=O)Nc3ccc(S(=O)(=O)N(C)c4cccc(Cl)c4)cc32)c(C)c1C(=O)N1CCN(C)CC1 [SU11274],miR-103 and miR-203 expression after SU11274,[1],increased
same,miR-30b/c and miR-221/miR-222 expression after SU11274,"[2]; Calu-1, 1 and 3 μM, 24, 48 and 72 h",down-regulation
same,Caspase-3/7 activity on exposure to gefitinib,[3]; [16],increased
same,Cell viability on exposure to gefitinib,[3]; [16],decreased
COc1cc2ncnc(Nc3ccc(F)c(Cl)c3)c2cc1OCCCN1CCOCC1 [gefitinib],BIM and APAF-1 protein after gefitinib,[4]; HCC827,increased amounts
same,APAF-1 and BIM expression after gefitinib,[4]; HCC827GR,did not change
same,BIM and APAF-1 protein after gefitinib,[4]; PC9,increased amounts
same,APAF-1 and BIM expression after gefitinib,[4]; PC9GR,did not change
same,"miR-21, miR-29a, miR-29c and miR-100 expression after gefitinib",[5]; HCC827,downregulated
same,"Downregulation of miR-21, miR-29a, miR-29c and miR-100 after gefitinib",[5]; HCC827 GR,not observed
same,"miR-21, miR-29a, miR-29c and miR-100 expression after gefitinib",[5]; PC9,downregulated
same,"Downregulation of miR-21, miR-29a, miR-29c and miR-100 after gefitinib",[5]; PC9 GR,not observed
same,"miR-30b, miR-30c, miR-221 and miR-222 expression after gefitinib",[2]; A549 gefitinib-resistant,does not decrease
same,"miR-30b, miR-30c, miR-221 and miR-222 expression after gefitinib",[2]; Calu-1 gefitinib-resistant,does not decrease
same,"miR-30b, miR-30c, miR-221 and miR-222 expression after gefitinib",[2]; HCC827,downregulation
same,"miR-221, miR-222, miR-30b and miR-30c expression after gefitinib",[2]; HCC827 GR,did not decrease
same,"miR-30b, miR-30c, miR-221 and miR-222 expression after gefitinib",[2]; PC9,downregulation
same,"miR-221, miR-222, miR-30b and miR-30c expression after gefitinib",[2]; PC9 GR,did not decrease
same,Concentration of phosphorylated ERKs compared to untreated cells,[6]; HCC827,markedly lower
same,ERKs phosphorylation after gefitinib,[6]; HCC827GR,did not change
same,Concentration of phosphorylated ERKs compared to untreated cells,[6]; PC9,markedly lower
same,ERKs phosphorylation after gefitinib,[6]; PC9GR,did not change
same,Cell growth / viability relative to untreated controls,[7],significantly inhibited
"miR-103: synthetic miR-103 or lentiviral construct containing full-length miR-103; targets PKC-ε and Dicer (AGCAGCATTGTACAGGGCTATGA; listed as DNA, chemistry not given here)","Phosphorylation of AKT, GSK3β and the ERKs",[8],reduced phosphorylation
same,E-cadherin expression,[9],increased
same,Expression of mesenchymal markers,[9],downregulation
same,Tumor growth,[10],marked inhibition
same,Sensitivity to gefitinib-induced apoptosis in vivo,[10],increased sensitivity
same,Cell cycle distribution (G1 fraction; S and G2-M phases),[11],increased G1 cell fraction
same,Concentrations of PKC-ε and SRC protein after enforced miRNA expression,[12],clearly reduced
same,Cell cycle distribution (G1 fraction; S and G2-M phases),[13],increased G1 cell fraction
same,Dicer level,[14],marked down-regulation
same,Gefitinib sensitivity of transfected cells (caspase-3/7 and viability assays),[3],increased the sensitivity
same,Migration reduced compared to controls,[15],about 60%
"miR-203: synthetic miR-203 or lentiviral construct containing full-length miR-203; targets SRC (CTAGTGGTCCTAAACATTTCAC; listed as DNA, chemistry not given here)","Phosphorylation of AKT, GSK3β and the ERKs",[8],reduced phosphorylation
same,E-cadherin expression,[9],increased
same,Expression of mesenchymal markers,[9],downregulation
same,Tumor growth,[10],marked inhibition
same,Sensitivity to gefitinib-induced apoptosis in vivo,[10],increased sensitivity
same,Cell cycle distribution (G1 fraction; S and G2-M phases),[11],increased G1 cell fraction
same,Concentrations of PKC-ε and SRC protein after enforced miRNA expression,[12],clearly reduced
same,Cell cycle distribution (G1 fraction; S and G2-M phases),[13],increased G1 cell fraction
same,Gefitinib sensitivity of transfected cells (caspase-3/7 and viability assays),[3],increased the sensitivity
same,Migration reduced compared to controls,[15],about 60%
